For the test, the target named is T1, human GlyT1c transporter (Homo sapiens, UniProt P48067).
T1 construct: expressed in transfected cells; host or cells: CHO cells (recombinant; line hGlyT1c_5_CHO is named for the uptake assay)
T1 sequence (P48067 1-706): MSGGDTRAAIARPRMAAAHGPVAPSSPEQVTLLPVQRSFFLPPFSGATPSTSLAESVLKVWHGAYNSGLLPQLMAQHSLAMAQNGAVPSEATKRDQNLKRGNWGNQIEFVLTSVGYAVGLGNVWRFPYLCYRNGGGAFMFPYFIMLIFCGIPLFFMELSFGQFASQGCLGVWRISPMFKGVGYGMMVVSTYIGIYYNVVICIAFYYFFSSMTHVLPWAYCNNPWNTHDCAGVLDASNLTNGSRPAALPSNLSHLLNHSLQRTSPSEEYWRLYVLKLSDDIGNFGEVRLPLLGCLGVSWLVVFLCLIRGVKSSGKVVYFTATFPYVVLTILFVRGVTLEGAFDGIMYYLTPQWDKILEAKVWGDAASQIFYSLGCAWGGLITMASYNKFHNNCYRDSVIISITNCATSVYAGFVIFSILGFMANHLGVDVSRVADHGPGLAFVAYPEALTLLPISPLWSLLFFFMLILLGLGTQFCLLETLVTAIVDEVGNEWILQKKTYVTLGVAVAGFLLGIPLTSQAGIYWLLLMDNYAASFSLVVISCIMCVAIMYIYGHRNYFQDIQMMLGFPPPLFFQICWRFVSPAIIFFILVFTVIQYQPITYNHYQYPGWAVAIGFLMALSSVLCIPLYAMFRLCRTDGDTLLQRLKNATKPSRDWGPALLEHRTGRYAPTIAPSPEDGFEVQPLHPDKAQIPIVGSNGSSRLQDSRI
As to the kind of experiment: Radioligand binding assay using recombinant CHO cell membranes expressing human GlyT1. To be noted: radioligand binding to human GlyT1c transporter-expressing membranes. An excerpt:
2. Radioligand binding assays using recombinant CHO cell membranes expressing human GlyT1: […]
With `Cn1cnc(S(=O)(=O)N2C[C@@H](Nc3ccc4cnccc4c3)[C@H](c3ccccc3)C2)c1` (relative stereo) [Example 230, N-{trans-1-[(1-methyl-1H-imidazol-4-yl)sulfonyl]-4-phenylpyrrolidin-3-yl}isoquinolin-6-amine], the Ki is not above 10 µM.

Take `Cc1nc(S(=O)(=O)N2C[C@H](Nc3ccc(F)c(C(F)(F)F)c3)[C@@H](c3ccc(F)cc3)C2)cn1C` [Example 756, (3R,4S)-1-[(1,2-dimethyl-1H-imidazol-4-yl)sulfonyl]-4-(4-fluorophenyl)-N-[4-fluoro-3-(trifluoromethyl)phenyl]pyrrolidin-3-amine]: the Ki was not above 10 µM.

As for `Cc1nc(C)c(S(=O)(=O)N2CC(Nc3ccc(F)c(F)c3)C(c3ccccc3)C2)s1` (stereo not drawn) [Example 474, N-(3,4-difluorophenyl)-1-[(2,4-dimethyl-1,3-thiazol-5-yl)sulfonyl]-4-phenylpyrrolidin-3-amine], the inhibitory constant (Ki) is not above 10 µM.

As to `Cn1cnc(S(=O)(=O)N2C[C@@H](NC(=O)c3ccccc3C(F)(F)F)[C@H](c3ccccc3)C2)c1` (relative stereo) [Example 35, N-{trans-1-[(1-methyl-1H-imidazol-4-yl)sulfonyl]-4-phenylpyrrolidin-3-yl}-2-(trifluoromethyl)benzamide], the Ki is not above 10 µM.

Turning to `Cn1cnc(S(=O)(=O)N2C[C@@H](C(=O)c3ccccc3)[C@H](c3ccc(F)cc3)C2)c1` (relative stereo) [Example 271, {trans-4-(4-fluorophenyl)-1-[(1-methyl-1H-imidazol-4-yl)sulfonyl]pyrrolidin-3-yl}(phenyl)methanone], the inhibitory constant (Ki) is not above 1 µM.

Take `Cn1cnc(S(=O)(=O)N2C[C@@H](Nc3cccc(F)n3)[C@H](c3ccccc3)C2)c1` (relative stereo) [Example 235, 6-fluoro-N-{trans-1-[(1-methyl-1H-imidazol-4-yl)sulfonyl]-4-phenylpyrrolidin-3-yl}pyridin-2-amine]: the Ki is not above 10 µM.

For `Cn1cnc(S(=O)(=O)N2C[C@@H](Nc3ccc(C#N)c(F)c3)[C@H](c3ccc(F)cc3)C2)c1` (relative stereo) [Example 342, 2-fluoro-4-({trans-4-(4-fluorophenyl)-1-[(1-methyl-1H-imidazol-4-yl)sulfonyl]pyrrolidin-3-yl}amino)benzonitrile], the Ki is not above 10 µM.

With `Cn1cnc(S(=O)(=O)N2C[C@@H](NC(=O)c3ccc(Cl)cc3Cl)[C@H](c3ccccc3)C2)c1` (relative stereo) [Example 26, 2,4-dichloro-N-{trans-1-[(1-methyl-1H-imidazol-4-yl)sulfonyl]-4-phenylpyrrolidin-3-yl}benzamide], the Ki is not above 1 µM.

`Cn1cnc(S(=O)(=O)N2C[C@H](Nc3cc(F)ccn3)[C@@H](c3ccc(F)cc3)C2)c1` [Example 736, 4-fluoro-N-{(3R,4S)-4-(4-fluorophenyl)-1-[(1-methyl-1H-imidazol-4-yl)sulfonyl]pyrrolidin-3-yl}pyridin-2-amine]: the inhibitory constant (Ki) is not above 1 µM.

With `Cn1cnc(S(=O)(=O)N2C[C@@H](Nc3cccc(F)c3F)[C@H](c3ccccc3)C2)c1` (relative stereo) [Example 231, trans-N-(2,3-difluorophenyl)-1-[(1-methyl-1H-imidazol-4-yl)sulfonyl]-4-phenylpyrrolidin-3-amine], the inhibition constant (Ki) is not above 1 µM.

On to `CC(C)OCCNC[C@@H]1CN(S(=O)(=O)c2cn(C)cn2)C[C@H]1c1ccc(F)cc1` (relative stereo) [Example 599, N-({trans-4-(4-fluorophenyl)-1-[(1-methyl-1H-imidazol-4-yl)sulfonyl]pyrrolidin-3-yl}methyl)-2-(propan-2-yloxy)ethanamine], for which the Ki is not above 10 µM.

As for `Cn1cnc(S(=O)(=O)N2C[C@@H](Nc3ccccc3C(F)(F)F)[C@H](c3ccccc3)C2)c1` (relative stereo) [Example 66, trans-1-[(1-methyl-1H-imidazol-4-yl)sulfonyl]-4-phenyl-N-[2-(trifluoromethyl)phenyl]pyrrolidin-3-amine], the Ki is not above 10 µM.

Regarding `Cn1cnc(S(=O)(=O)N2C[C@H](Nc3cnc(N4CCCC4)cn3)[C@@H](c3ccccc3)C2)c1` [Example 413, N-{(3R,4S)-1-[(1-methyl-1H-imidazol-4-yl)sulfonyl]-4-phenylpyrrolidin-3-yl}-5-(pyrrolidin-1-yl)pyrazin-2-amine], the Ki was not above 10 µM.

Take `Cn1cnc(S(=O)(=O)N2C[C@H](NCc3cc4cc(F)ccc4s3)[C@@H](c3ccccc3)C2)c1` [Example 568, (3R,4S)-N-[(5-fluoro-1-benzothiophen-2-yl)methyl]-1-[(1-methyl-1H-imidazol-4-yl)sulfonyl]-4-phenylpyrrolidin-3-amine]: the Ki is not above 0.1 µM.

For the molecule `Cn1cnc(S(=O)(=O)N2CC(Cc3cccc(Cl)c3)C(C3CC3)C2)c1` (stereo not drawn) [Example 309, 4-{[3-(3-chlorobenzyl)-4-cyclopropylpyrrolidin-1-yl]sulfonyl}-1-methyl-1H-imidazole], the inhibition constant Ki is not above 1 µM.

`Cn1cnc(S(=O)(=O)N2C[C@H](NC(=O)c3cnc(Cl)cn3)[C@@H](c3ccccc3)C2)c1` [Example 415, 5-chloro-N-{(3R,4S)-1-[(1-methyl-1H-imidazol-4-yl)sulfonyl]-4-phenylpyrrolidin-3-yl}pyrazine-2-carboxamide]: the Ki was not above 10 µM.

`Cn1cnc(S(=O)(=O)N2CC(Nc3ccc(Cl)c(C(F)(F)F)c3)C(c3ncco3)C2)c1` (stereo not drawn) [Example 710, N-[4-chloro-3-(trifluoromethyl)phenyl]-1-[(1-methyl-1H-imidazol-4-yl)sulfonyl]-4-(1,3-oxazol-2-yl)pyrrolidin-3-amine]: the Ki was not above 1 µM.

Take `Cn1cnc(S(=O)(=O)N2C[C@H](NCCC3CC3)[C@@H](c3ccccc3)C2)c1` [Example 545, (3R,4S)-N-(2-cyclopropylethyl)-1-[(1-methyl-1H-imidazol-4-yl)sulfonyl]-4-phenylpyrrolidin-3-amine]: the Ki was not above 1 µM.

Regarding `Cn1cnc(S(=O)(=O)N2C[C@@H](NCc3ccc(C(F)(F)F)cc3Cl)[C@H](c3ccccc3Cl)C2)c1` (relative stereo) [Example 285, trans-4-(2-chlorophenyl)-N-[2-chloro-4-(trifluoromethyl)benzyl]-1-[(1-methyl-1H-imidazol-4-yl)sulfonyl]pyrrolidin-3-amine], the Ki was not above 0.1 µM.

On to `Cn1cnc(S(=O)(=O)N2C[C@@H](Nc3ccc(F)c(F)c3)[C@H](c3ncco3)C2)c1` (relative stereo) [Example 709, Trans-N-[3,4-difluorophenyl]-1-[(1-methyl-1H-imidazol-4-yl)sulfonyl]-4-(1,3-oxazol-2-yl)pyrrolidin-3-amine], for which the inhibition constant (Ki) was not above 10 µM.

For `Cn1cnc(S(=O)(=O)N2C[C@@H](Nc3ccc(F)cc3F)[C@H](c3ccccc3)C2)c1` (relative stereo) [Example 233, trans-N-(2,4-difluorophenyl)-1-[(1-methyl-1H-imidazol-4-yl)sulfonyl]-4-phenylpyrrolidin-3-amine], the Ki is not above 10 µM.

Take `Cc1ccc(C#N)cc1N[C@@H]1CN(S(=O)(=O)c2cn(C)cn2)C[C@H]1c1ccccc1` (relative stereo) [Example 82, 4-methyl-3-({trans-1-[(1-methyl-1H-imidazol-4-yl)sulfonyl]-4-phenylpyrrolidin-3-yl}amino)benzonitrile]: the inhibition constant (Ki) was not above 10 µM.

Regarding `COc1ccc(N[C@H]2CN(S(=O)(=O)c3cn(C)cn3)C[C@@H]2c2ccccc2)cc1C(F)(F)F` [Example 653, (3R,4S)-N-[4-methoxy-3-(trifluoromethyl)phenyl]-1-[(1-methyl-1H-imidazol-4-yl)sulfonyl]-4-phenylpyrrolidin-3-amine], the Ki was not above 10 µM.

With `Cn1cnc(S(=O)(=O)N2C[C@@H](NCc3ccccn3)[C@H](c3ccc(F)cc3)C2)c1` (relative stereo) [Example 268, trans-4-(4-fluorophenyl)-1-[(1-methyl-1H-imidazol-4-yl)sulfonyl]-N-(pyridin-2-ylmethyl)pyrrolidin-3-amine], the inhibition constant (Ki) was not above 10 µM.

In the case of `CC(C)CN[C@H]1CN(S(=O)(=O)c2cn(C)cn2)C[C@@H]1c1ccccc1` [Example 439, (3R,4S)-1-[(1-methyl-1H-imidazol-4-yl)sulfonyl]-N-(2-methylpropyl)-4-phenylpyrrolidin-3-amine], the Ki was not above 1 µM.

Consider `Cc1c(C#N)cccc1N[C@@H]1CN(S(=O)(=O)c2cn(C)cn2)C[C@H]1c1ccccc1` (relative stereo) [Example 83, 2-methyl-3-({trans-1-[(1-methyl-1H-imidazol-4-yl)sulfonyl]-4-phenylpyrrolidin-3-yl}amino)benzonitrile], for which the Ki is not above 1 µM.

As for `Cn1cnc(S(=O)(=O)N2C[C@@H](COc3ccc(F)c(Cl)c3)[C@H](c3ccc(F)cc3)C2)c1` (relative stereo) [Example 318, 4-{[Trans-3-[(3-chloro-4-fluorophenoxy)methyl]-4-(4-fluorophenyl)pyrrolidin-1-yl]sulfonyl}-1-methyl-1H-imidazole], the Ki is not above 1 µM.

Usually Ki stands for a dissociation constant, usually derived from enzyme kinetics or from competition with a known ligand.

The values above are taken from patent EP2970215B1, “PYRROLIDINE DERIVATIVES, PHARMACEUTICAL COMPOSITIONS CONTAINING THEM, AND THEIR USE IN THERAPY” (AbbVie Deutschland GmbH & Co. KG, priority 2013, dated 2014).
